We go through six compounds from ChEMBL document CHEMBL1201862, “PubChem BioAssay data set” (2004).

Usually AC50 stands for the concentration at which the activity in the assay is half-maximal. As a reminder, the IC50 is the concentration that gives 50% inhibition. As a reminder, the EC50 is the concentration needed to bring the measured effect to its halfway point. As usually defined, the CC50 is the concentration at which the toxic effect on the cells reaches its halfway point.

One assay deals with T1, Caspase-6 (Homo sapiens, UniProt P55212).
T1 sequence (P55212 whole entry): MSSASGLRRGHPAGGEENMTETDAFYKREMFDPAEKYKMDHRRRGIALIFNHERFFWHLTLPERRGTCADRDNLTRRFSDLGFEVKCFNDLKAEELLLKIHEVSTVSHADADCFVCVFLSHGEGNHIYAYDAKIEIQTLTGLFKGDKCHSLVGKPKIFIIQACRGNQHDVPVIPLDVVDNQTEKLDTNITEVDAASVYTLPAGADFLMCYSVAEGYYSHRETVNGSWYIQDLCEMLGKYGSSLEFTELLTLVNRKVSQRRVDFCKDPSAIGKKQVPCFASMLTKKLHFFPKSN
Put plainly: inhibition of CASP6 peptide cleavage – biochemical, VEID-R110 fluorescence, cherry-pick, dose response (AID 720632).

Assay [1] has as its target T2, Histone-lysine N-methyltransferase NSD2 (Homo sapiens, UniProt O96028).
T2 sequence (O96028 whole entry): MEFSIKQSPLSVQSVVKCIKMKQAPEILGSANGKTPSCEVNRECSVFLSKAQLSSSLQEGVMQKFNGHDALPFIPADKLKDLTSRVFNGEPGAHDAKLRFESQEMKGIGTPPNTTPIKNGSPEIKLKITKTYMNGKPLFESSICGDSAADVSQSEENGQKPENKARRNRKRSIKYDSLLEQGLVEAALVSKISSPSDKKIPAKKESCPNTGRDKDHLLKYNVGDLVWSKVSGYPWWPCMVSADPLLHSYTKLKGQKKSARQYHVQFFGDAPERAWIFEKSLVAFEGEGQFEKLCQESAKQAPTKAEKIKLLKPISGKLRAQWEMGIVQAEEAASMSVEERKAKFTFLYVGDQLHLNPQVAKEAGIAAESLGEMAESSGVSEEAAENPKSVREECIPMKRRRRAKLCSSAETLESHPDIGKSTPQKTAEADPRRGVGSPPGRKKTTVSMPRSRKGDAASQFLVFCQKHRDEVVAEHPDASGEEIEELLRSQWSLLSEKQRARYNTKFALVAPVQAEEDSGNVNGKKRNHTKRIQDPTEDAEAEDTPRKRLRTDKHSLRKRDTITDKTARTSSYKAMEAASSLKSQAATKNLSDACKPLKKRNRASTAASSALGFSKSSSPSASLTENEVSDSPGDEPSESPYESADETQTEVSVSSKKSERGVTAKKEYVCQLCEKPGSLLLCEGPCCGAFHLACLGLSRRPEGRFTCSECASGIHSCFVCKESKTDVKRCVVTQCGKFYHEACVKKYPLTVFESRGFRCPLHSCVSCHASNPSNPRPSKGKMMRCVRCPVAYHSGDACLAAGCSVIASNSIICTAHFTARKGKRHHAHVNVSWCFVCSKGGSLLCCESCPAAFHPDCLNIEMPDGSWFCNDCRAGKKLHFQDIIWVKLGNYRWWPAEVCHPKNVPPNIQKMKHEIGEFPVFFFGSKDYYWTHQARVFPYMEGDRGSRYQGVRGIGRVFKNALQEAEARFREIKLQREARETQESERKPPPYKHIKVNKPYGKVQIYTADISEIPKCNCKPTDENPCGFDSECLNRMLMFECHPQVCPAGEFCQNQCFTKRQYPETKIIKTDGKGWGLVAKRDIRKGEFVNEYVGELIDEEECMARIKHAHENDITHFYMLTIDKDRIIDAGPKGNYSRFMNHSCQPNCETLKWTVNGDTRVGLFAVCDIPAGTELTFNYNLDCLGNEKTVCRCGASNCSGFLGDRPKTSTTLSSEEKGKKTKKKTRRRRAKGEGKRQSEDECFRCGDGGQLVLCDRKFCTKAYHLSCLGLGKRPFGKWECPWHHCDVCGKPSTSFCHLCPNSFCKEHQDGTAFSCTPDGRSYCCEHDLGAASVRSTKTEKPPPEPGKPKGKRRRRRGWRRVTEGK
Type of assay: biochemical.

In assay [2] the target is T3, Methionyl-tRNA synthetase, putative (Trypanosoma brucei brucei, UniProt Q38C91).
T3 sequence (Q38C91 whole entry): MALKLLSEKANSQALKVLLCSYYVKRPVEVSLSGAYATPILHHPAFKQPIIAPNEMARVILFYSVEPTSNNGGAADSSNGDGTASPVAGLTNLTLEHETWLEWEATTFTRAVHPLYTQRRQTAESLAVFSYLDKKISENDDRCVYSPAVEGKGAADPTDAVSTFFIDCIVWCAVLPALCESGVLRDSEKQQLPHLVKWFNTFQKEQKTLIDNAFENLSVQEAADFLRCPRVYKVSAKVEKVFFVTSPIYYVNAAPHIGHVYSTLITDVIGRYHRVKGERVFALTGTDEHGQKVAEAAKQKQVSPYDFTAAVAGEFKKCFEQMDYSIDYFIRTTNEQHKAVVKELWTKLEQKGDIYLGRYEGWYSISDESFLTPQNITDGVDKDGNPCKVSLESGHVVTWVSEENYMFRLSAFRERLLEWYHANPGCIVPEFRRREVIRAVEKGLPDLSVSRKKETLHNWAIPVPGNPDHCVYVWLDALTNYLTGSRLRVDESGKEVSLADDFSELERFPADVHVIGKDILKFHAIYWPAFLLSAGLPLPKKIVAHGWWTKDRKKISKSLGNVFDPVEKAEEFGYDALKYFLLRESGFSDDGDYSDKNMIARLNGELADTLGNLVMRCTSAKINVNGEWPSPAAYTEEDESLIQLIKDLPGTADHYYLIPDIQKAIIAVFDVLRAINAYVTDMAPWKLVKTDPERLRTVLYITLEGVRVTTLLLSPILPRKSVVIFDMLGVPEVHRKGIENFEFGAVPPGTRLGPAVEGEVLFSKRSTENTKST
Type of assay: functional, Trypanosoma brucei brucei strain 927/4 GUTat10.1.

Assay [3] deals with T3, Methionyl-tRNA synthetase, putative. Type of assay: functional, Trypanosoma brucei brucei strain 927/4 GUTat10.1. The source holds these as a separate data set.
Assay [4] is described as follows: Counterscreen for inhibitors of Trypanosoma brucei methionyl tRNA synthetase (MetRS): Luminescence-based cell-based high throughput dose response assay to identify compounds that are cytotoxic to Jurkat human T lymphocyte cells. In kind it is functional. A general note: Counterscreens check selectivity or assay interference.
Assay [5] concerns the target T4, Heat shock factor protein 1 (Mus musculus, UniProt P38532).
T4 sequence (P38532 whole entry): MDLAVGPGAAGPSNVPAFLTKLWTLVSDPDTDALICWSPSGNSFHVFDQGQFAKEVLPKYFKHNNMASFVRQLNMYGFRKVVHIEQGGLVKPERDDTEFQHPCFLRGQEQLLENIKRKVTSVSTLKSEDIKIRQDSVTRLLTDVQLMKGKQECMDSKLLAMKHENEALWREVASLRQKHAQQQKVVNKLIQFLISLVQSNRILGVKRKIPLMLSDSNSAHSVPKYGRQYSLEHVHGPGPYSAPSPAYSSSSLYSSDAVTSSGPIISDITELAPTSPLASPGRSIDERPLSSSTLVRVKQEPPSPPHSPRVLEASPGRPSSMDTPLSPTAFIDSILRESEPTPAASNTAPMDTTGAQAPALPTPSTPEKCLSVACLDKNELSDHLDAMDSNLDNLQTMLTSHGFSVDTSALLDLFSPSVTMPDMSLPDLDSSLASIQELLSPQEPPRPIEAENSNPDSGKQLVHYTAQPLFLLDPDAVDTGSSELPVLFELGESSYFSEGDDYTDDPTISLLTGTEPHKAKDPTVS
Put plainly: enhancement of HSF1-driven luciferase signal – cell-based, NIH3T3, luminescence, dose retest, confirmation (AID 435004).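 Further: stress induced by proteasome inhibitor MG132 added 30 min after compound; luciferase reporter driven by HSF1 response element in NIH3T3 cells; actives raise luminescence as potentiators of the MG132 stress response.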 In kind it is functional.

The target in assay [6] is T5, DNA repair protein RAD52 homolog (Homo sapiens, UniProt P43351).
T5 sequence (P43351 whole entry): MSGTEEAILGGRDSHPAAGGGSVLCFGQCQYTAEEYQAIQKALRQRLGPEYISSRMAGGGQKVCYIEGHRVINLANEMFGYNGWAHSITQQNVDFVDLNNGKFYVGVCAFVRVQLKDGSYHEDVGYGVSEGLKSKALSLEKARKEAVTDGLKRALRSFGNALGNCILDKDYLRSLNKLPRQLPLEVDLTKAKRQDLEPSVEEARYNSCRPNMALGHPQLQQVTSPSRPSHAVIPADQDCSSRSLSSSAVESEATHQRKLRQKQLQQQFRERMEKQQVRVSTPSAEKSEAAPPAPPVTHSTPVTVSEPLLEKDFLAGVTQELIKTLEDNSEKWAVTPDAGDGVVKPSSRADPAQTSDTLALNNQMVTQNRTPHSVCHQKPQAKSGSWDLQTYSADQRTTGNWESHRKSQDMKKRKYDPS
In kind it is functional, biochemical.

For assay [7], the target named is 26S proteasome non-ATPase regulatory subunit 14 (Homo sapiens, UniProt O00487). The assay is described as follows: inhibition of proteasome subunit RPN11 – biochemical, fluorescence polarization, uHTS hits, confirmation (AID 602368). In kind it is functional.
26S proteasome non-ATPase regulatory subunit 14, sequence (O00487 whole entry): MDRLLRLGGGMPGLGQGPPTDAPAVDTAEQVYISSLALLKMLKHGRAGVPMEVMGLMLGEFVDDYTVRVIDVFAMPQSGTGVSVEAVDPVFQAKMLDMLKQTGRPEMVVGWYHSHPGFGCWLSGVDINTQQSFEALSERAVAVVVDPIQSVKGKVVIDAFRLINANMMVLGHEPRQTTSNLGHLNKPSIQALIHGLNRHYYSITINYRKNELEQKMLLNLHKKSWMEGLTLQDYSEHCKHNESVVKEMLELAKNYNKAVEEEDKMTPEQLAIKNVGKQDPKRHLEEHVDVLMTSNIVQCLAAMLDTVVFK
The target in a further assay is Phospholipase A2 (Homo sapiens, UniProt P04054). In kind it is functional.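 Further: confirmatory dose-response counterscreen on phospholipase A2, testing hits that came from an ultra-high-throughput screen for ATG4B inhibitors.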
Phospholipase A2, sequence (P04054 whole entry): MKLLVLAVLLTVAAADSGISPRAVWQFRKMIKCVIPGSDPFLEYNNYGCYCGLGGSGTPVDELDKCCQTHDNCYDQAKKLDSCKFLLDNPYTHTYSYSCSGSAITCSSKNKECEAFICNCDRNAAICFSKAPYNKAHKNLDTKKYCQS
Assay [8] concerns the target 72 kDa type IV collagenase (Homo sapiens, UniProt P08253). Put plainly: Dose Response validation of uHTS RPN11 inhibitor hits using a MMP-2 Fluorescence assay. In kind it is functional.
The target in the next assay is T6, Cysteine protease ATG4B (Homo sapiens, UniProt Q9Y4P1).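 Further: Fluorescence-based dose-response confirmation assay measuring inhibition of ATG4B activity.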
T6 sequence (Q9Y4P1 whole entry): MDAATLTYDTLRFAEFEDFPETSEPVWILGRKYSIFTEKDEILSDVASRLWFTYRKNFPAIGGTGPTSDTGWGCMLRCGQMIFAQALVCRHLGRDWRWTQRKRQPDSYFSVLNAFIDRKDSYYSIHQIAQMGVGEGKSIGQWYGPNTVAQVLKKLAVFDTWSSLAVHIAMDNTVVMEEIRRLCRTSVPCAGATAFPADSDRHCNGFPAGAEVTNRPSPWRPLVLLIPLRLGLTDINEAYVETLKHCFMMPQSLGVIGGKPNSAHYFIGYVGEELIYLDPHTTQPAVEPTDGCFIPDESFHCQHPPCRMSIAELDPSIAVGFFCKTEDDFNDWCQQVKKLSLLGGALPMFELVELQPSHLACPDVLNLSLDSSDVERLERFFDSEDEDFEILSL
In kind it is functional.

The target of a further assay is Prothrombin (Bos taurus, UniProt P00735). Put plainly: thrombin protease inhibitors – biochemical, fluorescence polarization, uHTS hits, dose response (AID 602369). Type of assay: functional. In general terms: In fluorescence polarisation assays a small probe gives low polarisation when free and higher when bound to something large.
In the next assay the test system is Vero. Put plainly: cells. In kind it is functional. The following applies: Chlorocebus sabaeus.
For assay [9], the target named is T7, Short transient receptor potential channel 4 (Mus musculus, UniProt Q9QUQ5).
T7 sequence (Q9QUQ5 whole entry): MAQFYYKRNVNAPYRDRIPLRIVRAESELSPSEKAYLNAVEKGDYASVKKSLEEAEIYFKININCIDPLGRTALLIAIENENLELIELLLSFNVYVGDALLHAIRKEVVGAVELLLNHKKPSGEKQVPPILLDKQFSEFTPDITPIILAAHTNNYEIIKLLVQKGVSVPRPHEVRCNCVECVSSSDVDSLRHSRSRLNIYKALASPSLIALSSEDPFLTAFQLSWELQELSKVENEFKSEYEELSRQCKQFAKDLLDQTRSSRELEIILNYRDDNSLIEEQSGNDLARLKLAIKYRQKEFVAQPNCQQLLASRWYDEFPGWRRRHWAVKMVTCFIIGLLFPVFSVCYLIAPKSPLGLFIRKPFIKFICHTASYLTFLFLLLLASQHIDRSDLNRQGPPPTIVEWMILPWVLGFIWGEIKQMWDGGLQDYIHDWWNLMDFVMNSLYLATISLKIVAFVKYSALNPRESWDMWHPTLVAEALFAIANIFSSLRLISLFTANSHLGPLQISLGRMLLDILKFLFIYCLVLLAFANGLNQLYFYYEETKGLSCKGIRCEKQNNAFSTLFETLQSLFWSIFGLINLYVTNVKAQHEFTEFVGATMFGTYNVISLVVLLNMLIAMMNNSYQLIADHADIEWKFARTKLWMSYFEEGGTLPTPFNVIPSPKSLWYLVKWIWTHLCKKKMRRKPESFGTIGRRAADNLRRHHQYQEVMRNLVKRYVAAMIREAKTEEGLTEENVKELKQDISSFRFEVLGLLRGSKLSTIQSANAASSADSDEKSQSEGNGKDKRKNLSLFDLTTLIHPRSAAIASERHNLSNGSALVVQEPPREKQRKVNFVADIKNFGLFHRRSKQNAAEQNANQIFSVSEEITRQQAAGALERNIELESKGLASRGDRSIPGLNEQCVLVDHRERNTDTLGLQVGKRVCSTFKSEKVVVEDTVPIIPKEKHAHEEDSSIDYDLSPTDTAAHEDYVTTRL
The assay is described as follows: block of DAMGO-driven TRPC4 calcium entry – cell-based, HEK293 TRPC4/mu-opioid, Fluo-4 calcium, dose response (AID 434942).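 Further: potency of inhibitors blocking the TRPC4 calcium response.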 Type of assay: functional.

Calls of active or inactive are those of the source. A value given as a limit tells only on which side of the number the result lay.

72 kDa type IV collagenase, sequence (P08253 whole entry): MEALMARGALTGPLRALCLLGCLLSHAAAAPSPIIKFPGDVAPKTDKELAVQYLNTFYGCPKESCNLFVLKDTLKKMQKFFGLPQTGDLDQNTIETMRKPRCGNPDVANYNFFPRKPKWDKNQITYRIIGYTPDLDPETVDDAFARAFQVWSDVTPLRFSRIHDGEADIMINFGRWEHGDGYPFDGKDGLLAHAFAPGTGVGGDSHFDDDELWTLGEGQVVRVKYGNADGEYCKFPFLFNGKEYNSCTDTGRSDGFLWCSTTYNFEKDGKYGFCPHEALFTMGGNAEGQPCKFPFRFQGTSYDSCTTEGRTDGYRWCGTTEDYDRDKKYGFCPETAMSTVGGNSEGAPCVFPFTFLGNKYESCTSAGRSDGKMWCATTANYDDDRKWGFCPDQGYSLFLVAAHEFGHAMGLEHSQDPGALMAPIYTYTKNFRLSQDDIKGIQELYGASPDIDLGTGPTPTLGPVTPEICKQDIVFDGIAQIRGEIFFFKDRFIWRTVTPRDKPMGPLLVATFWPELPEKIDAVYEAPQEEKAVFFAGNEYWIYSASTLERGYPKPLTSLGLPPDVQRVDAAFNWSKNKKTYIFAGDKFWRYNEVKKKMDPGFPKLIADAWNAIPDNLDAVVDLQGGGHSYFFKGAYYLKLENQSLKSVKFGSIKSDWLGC

`Cc1cc(/C=C\c2nc(O)c([N+](=O)[O-])c(O)n2)c(C)n1-c1ccccc1`: the results for the AC50 (on Caspase-6; in assay [1]) were 19.2 µM (active) and > 20 µM (inactive), respectively.
For `CCOc1ccccc1NS(=O)(=O)c1c(C)[nH]c(C)c1C(=O)N1CCCCC1`, the IC50 was 11.2 µM (inactive) in [2], 26.1 µM (inactive) in [3] and 83.3 µM (inactive) in assay [4].
On to `CCOC(=O)c1sc(NC(=O)Nc2ccccc2)cc1C`, for which, in assay [5], the EC50 was > 260 µM (inconclusive). The IC50 is 43.9 µM (inactive) in [2], 4.39 µM (active) in assay [3] and 45 µM (inactive) in [4].
In the case of `O=C(NCc1cc(Cl)cc(Cl)c1)c1csc(COCCO)n1`, the IC50 in assay [2] was 5.4 µM (active); in assay [3], 12.2 µM (inactive); in assay [4], 83.3 µM (inactive).
With `CCCCCCCCCCCCCCC(O)C[N+](C)(CCO)CCO` (stereo unspecified), in assay [6], the AC50 was 8.88 µM (active). Moreover, the IC50 in assay [7] is 25.3 µM (active); on Phospholipase A2, 7.95 µM (active); in assay [8] it was 85 µM (active); on Cysteine protease ATG4B it was 8.23 µM (active); at Prothrombin it was 50 µM (active). In addition, the CC50 in the assay on Vero was 13.1 µM (active).
As for `CCc1ccc2nc(NC(=N)N)nc(C)c2c1`, the AC50 in [6] is 16.8 µM (active). Also, the concentration giving a half-maximal response (EC50) in [9] was 15 µM (active).
